Several values for one entry are separate records, joined by “and”; a condition that tells them apart may be missing. Equal values may be shown once. Read-outs that look alike come from different tables or passages of the source.
Legend:
[1] = Fluorescent AGEs formation in a BSA-fructose/glucose system; type: biochemical; details: for IC50: read-out: BSA-glycation IC50
Method in brief: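 BSA glycated in vitro with D-glucose and D-fructose while test samples, dissolved in DMSO:water (1:4), were present. Percent inhibition of fluorescent AGE formation calculated from fluorescence corrected for sample-only and BSA-free blanks; triplicate.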

[2] = tested on: CML expression in MGO-induced HDFs; test: Glycation cell assay: CML expression in MGO-induced HDFs (IF); type: cell-based, human; details: positive compound
Protocol: Based on previously reported methods ([25]), human primary dermal fibroblasts (HDFs) were induced by MGO to establish a cell model of high CML expression.
HDFs were cultured in high-glucose DMEM supplemented with 10% FBS containing 100 µg/ml of PS at 37°C in a humidified 5% CO2 incubator. Cell viability was assessed using the CCK-8 kit. HDFs were cultured in 12-well plates to approximately 70% confluence and then treated with 0.5 mmol/L of MGO for 48 h to induce glycation and the formation of CML. Subsequently, different concentrations of samples were added and co-cultured with MGO for an additional 48 h. Cells were then washed once with PBS and fixed in polyformaldehyde overnight at 4°C. Triton-X-100 solution (0.1%) was assigned to fixed cells for 5 min at room temperature to improve cell membrane permeability. After washing twice with PBS, cells were blocked in 1% BSA for 1 h, followed by incubation with the primary CML antibody (1:50) overnight at 4°C. […] Counterstaining was performed by adopting anti-fluorescence quenching and sealing liquid containing DAPI, followed by visualisation and fluorescence image capture using a microscope (Leica, Germany). ImageJ software was used to quantify CML expression from different images randomly selected in each group.

[3] = tested on: type I collagen in HDFs; test: Collagen type I immunofluorescence staining in HDFs; type: cell-based, human; details: for COL I staining: VC positive control, NT = 100%, replicates and AVE, listed as VC
Protocol: (§1) HDFs were cultured in DMEM with 10% (v/v) FBS and 1% PS at 37°C in a humidified 5% CO2 incubator. Cells were subcultured using pancreatin solution after reaching confluence. All experiments were performed between the third and eighth passages.
(§2) The synthesis of collagen types I and III was detected using IF ([26]) and ELISA ([27]). HDFs were digested and seeded in a 24-well culture plate on slides at a density of 50,000 cells/well in a complete medium. After reaching 80% confluency, cells were starved with the medium in the absence of serum for 16 h. Cells were then treated with positive controls or active samples (prepared in medium without serum) for an additional 48 h. For analysis and visualisation of types I and III collagens, the supernatants and remaining cell slides were both collected and analysed using ELISA kits and the IF staining method, respectively.
(§3) Collected supernatants were centrifuged at 10,000 rpm for 10 min and used for types I and III collagen ELISA, according to the manufacturer’s protocol. The remaining cell slides were washed once with PBS and fixed in polyformaldehyde overnight at 4°C. Subsequently, the slides were treated with 0.5% Triton-X100 for 5 min. After washing, cells were blocked with 1% BSA at room temperature for 1 h. Cells were then incubated with types I and type III collagen primary antibodies (1:100) for 2 h at room temperature. […] Finally, the nuclei were counter-stained with DAPI, and relevant fluorescent images were captured using a microscope. ImageJ software was used to quantify collagen expression from different images randomly selected in each group.

[4] = tested on: type III collagen in HDFs; test: Collagen type III immunofluorescence staining in HDFs; type: cell-based, human; details: for COL III staining: VC positive control, NT = 100%, replicates and AVE, listed as VC
Protocol: as §1, §2, §3

[5] = tested on: secreted type I collagen of HDFs; test: Extracellular collagen type I ELISA on HDFs; type: cell-based, human; details: for COL I (ELISA): VC positive control, replicates and AVE, listed as VC
Protocol: as §1, §2, §3

[6] = tested on: secreted type III collagen of HDFs; test: Extracellular collagen type III ELISA on HDFs; type: cell-based, human; details: VC positive control, replicates and AVE, listed as VC
Protocol: as §1, §2
Collected supernatants were centrifuged at 10,000 rpm for 10 min and used for types I and III collagen ELISA, according to the manufacturer’s protocol. The remaining cell slides were washed once with PBS and fixed in polyformaldehyde overnight at 4°C. Subsequently, the slides were treated with 0.5% Triton-X100 for 5 min. After washing, cells were blocked with 1% BSA at room temperature for 1 h. […] ImageJ software was used to quantify collagen expression from different images randomly selected in each group.

Compound	fluorescent AGEs IC50 [1] [µg/mL]	inhibition of fluorescent AGEs formation (BSA-抗糖化), single replicate ([1]; 15.625 ug/ml)	IC50 ([1]; lower part of sheet (compound series)) [µM]	IC50 ([1]; mean ± SD, n = 3) [µM]	BSA-glycation IC50 ([1]; upper part of sheet (extract series)) [µg/mL]	IC50 ([1]; upper part of sheet (extract series), positive control also given in μM) [µM]	inhibition of glycation (CML) [2] [%]	collagen type I expression (IF) ([3]; VC 200 μg/ml, positive control)	COL I staining [3]	COL I staining ([3]; mean) [%]	collagen type III expression (IF) ([4]; VC 200 μg/ml, positive control)	COL III staining [4]	COL III staining ([4]; mean) [%]	COL I (ELISA) [5]	COL I (ELISA) ([5]; mean) [pg/mL]	increase of secreted collagen type I levels ([5]; VC, 48 h, culture medium) [%]	COL III (ELISA) [6]	COL III (ELISA) ([6]; mean) [ng/mL]
Cl.N=C(N)NN [AG, Aminoguanidine hydrochloride, reference compound]	177.3 ± 11.6	-1.16% and 3.22%	1620 ± 111	1600	178.47 ± 12.27	1620 ± 111	88.11											
O=C1O[C@H]([C@@H](O)CO)C(O)=C1O [vitamin C]								190.20 % of control	173.88% and 170.79% and 188.58% and 168.29% and 249.47%	190.20	125.90 % of control	118.22% and 137.59% and 116.52% and 131.28%	125.90	646.77 pg/mL and 611.41 pg/mL and 656.93 pg/mL	638.37	21.94	2.70 ng/mL and 2.97 ng/mL and 3.15 ng/mL	2.94

Reference: paper PMC10064984, “Anti-cyclooxygenase, anti-glycation, and anti-skin aging effect of Dendrobium officinale flowers’ aqueous extract and its phytochemical validation in aging” (Frontiers in Immunology, 2023)
